Reference: patent publication US4245100A, “Sydnonimine N-acyl derivatives and method for preparing same” (Vsesojuzny nauchno-issledovatelsky khimikofarmatsevtichesky …, priority 1977, dated 1981)

Tests used:
central nervous system [1] = test: Locomotory activity of mice (registered with instrument "Animex"); assay type: in vivo, white male mice; conditions: for ED200: Mus musculus, dose causing two-fold potentiation of locomotory activity, read-out: ED200 (locomotion)
Protocol: (§1) Psychostimulating activity of the compounds according to the present invention has been tested in experiments with mice and rats.
(§2) The experiments are performed with white male mice with a weight of 18-20 g and with white rat males with a weight of 120 to 140 g with the account of parameters characterising the influence of the compounds according to the present invention on the central nervous system as well as toxicity. Following this objective, there have been studied:
(1) effect of the compounds on the locomotory activity of the animals (locomotory activity is registered using the instrument "Animex");
(§3) To quantitatively evaluate the central stimulant activity of the compounds in the tests on mice the values of ED200 (locomotion) are determined, i.e. doses in which the compounds cause a two-fold potentiation of locomotory activity of the animals; in the tests performed with rats there are determined values of ED50 (stereotypy), i.e. doses in which the compounds, one hour after their administration, cause, in 50% of the test rats, stereotypic behavior reactions (ED50 doses are calculated by the Litchfield and Wilkoxsons method).
(§4) The compounds according to the present invention are sparingly soluble in water. They were administered to the animals in the form of a suspension prepared with the use of a 1% solution of carboxymethylcellulose with the addition of Tween-80® as an emulsifying agent. Since molecular weights of the test compounds differ from each other, their doses are calculated in mcM/kg.
(§5) In a special series of experiments there has been made a quantitative comparison of the central stimulant effect of the compounds according to the present invention as determined by tests of locomotory activity with mice and stereotypy with rats.

central nervous system [2] = test: Stereotypic behavior reactions in rats; assay type: in vivo, white rat males; conditions: Rattus norvegicus, 1 h, dose causing stereotypic behavior reactions in 50% of rats one hour after administration, Litchfield and Wilkoxson method, read-out: ED50 (stereotypy)
Protocol: as §1, §2
(2) capability of the compounds of inducing sterotypic behavior reactions;
as §3, §4, §5

central nervous system [3] = conditions: prior art compound; cited from earlier work
Solubility = assay type: physicochemical
mice = conditions: statement on known psychostimulant compounds; cited from earlier work

SMILES	ED200 (central nervous system [1])	ED50 (central nervous system [2])	phenomenon of "group toxicity" (known psychostimulant compounds) (mice)	other results
CC(Cc1ccccc1)[n+]1cc([N-]C(=O)Nc2ccc(Cl)cc2)on1 (racemic) [Example 4, dl-N-para-chlorophenyl carbamoyl-3-(α-methyl-β-phenylethyl) sydnonimine]	18.2 µmol/kg	20 µmol/kg	–	–
Cc1cccc(NC(=O)[N-]c2c[n+](C(C)Cc3ccccc3)no2)c1 (racemic) [X is NH--C6 H4 --CH3 --meta]	32.3 µmol/kg	39.9 µmol/kg	–	–
CC(Cc1ccccc1)[n+]1cc([N-]C(=O)Nc2ccccc2)on1 (racemic) [dl-N-phenylcarbamoyl-3-(α-methyl-β-phenylethyl) sydnonimine, reference compound]	72.6 µmol/kg	107 µmol/kg	–	psychostimulant activity (known compound) (central nervous system [3]): possesses a psychostimulant activity
C[C@H](Cc1ccccc1)[n+]1cc([N-]C(=O)Nc2ccccc2)on1 [Example 3, l-3-(α-methyl-β-phenylethyl)-N-phenylcarbamoylsydnonimine]	–	–	–	duration for which maximum locomotory activity is maintained (central nervous system [1]; dose of 40 mcM/kg): 1 to 1.5 h; solubility in acetone (Solubility; acetone): soluble; solubility in chloroform (Solubility; chloroform): soluble; solubility in fats (Solubility; fats): soluble; solubility in water (Solubility; water): substantially insoluble in water
CC(N)Cc1ccccc1 (centres unmarked) [amphetamine]	–	–	characteristic	–
C[C@H](N)Cc1ccccc1 [dextramphetamine]	–	–	characteristic	–
